# Experiments:
# Type in all cases: cell-based, human
# A549 cell line = assay: Inflammation and EMT in A549 cells treated with TGF-β1 and LPS (qPCR); conditions: native GIP 10 µM, long-acting GIP derivative 1 or 10 µM
# Description: The A549 cell line, a human alveolar epithelial cell, was used to confirm the inflammatory and fibrosis amelioration effect of long-acting GIP derivatives on COPD in vitro. The purpose of this experiment was to determine the effect of alveolar epithelial cells on epithelial mesenchymal transition (EMT), which is known to be important in the pulmonary fibrosis process.
# The A549 cell line was cultured in a F-12K medium supplemented with 10% fetal bovine serum (FBS), 100 µg/mL streptomycin, and 100 U/mL penicillin at a temperature of 37 °C and in 5% carbon dioxide conditions. Cell lines were sequentially treated with TGF-β1 and LPS to induce inflammatory responses and EMT. The native GIP was added at the concentration 10 µM, and the long-acting GIP derivative was diluted at a concentration of 1 or 10 µM and added. As the long-acting GIP derivative, the long-acting GIP conjugate (SEQ ID NO: 17) prepared in Example 3 was used.
# RNA was isolated from the A549 cell line after the treatment was completed by using the RNeasy Mini Kit (Qiagen, US), and cDNA was synthesized using the iScript™ cDNA Synthesis Kit (Bio-rad, US). Regarding the synthesized cDNA, the expression level of inflammation and EMT-related genes was confirmed by using the QuantStudio 6 Flex Real-Time PCR System (Applied Biosystems, US). Delta Delta Ct method was used, and beta-actin was used as a housekeeping gene. […]
# THP-1 cell line [1] = assay: Anti-inflammatory effect in LPS-induced THP-1 cells, mRNA level (qPCR); conditions: THP-1, 1 µg/mL LPS; native GIP 10 µM, long-acting GIP derivative 1 or 10 µM; FIG. 2A
# Description: To confirm the anti-inflammatory effect of the long-acting GIP derivative on COPD in vitro, a human monocyte/macrophage cell line, THP-1, was used. Macrophages are known to induce the progression of inflammation by secreting cytokines and chemokines at the initial stage of infection and mobilizing other immune cells.
# The THP-1 cell line was cultured in a RPMI 1640 medium supplemented with 10% fetal bovine serum (FBS), 100 µg/mL streptomycin, 100 U/mL penicillin, and 0.05 mM β-mercaptoethanol, at a temperature of 37 °C in 5% carbon dioxide conditions. An inflammatory response was induced by adding 1 µg/mL of lipopolysaccharide (LPS) to the cell line, and the effect on the inflammatory response by LPS when treated with native GIP and long-acting GIP derivatives was confirmed at the mRNA level. The native GIP was added at the concentration 10 µM, and the long-acting GIP derivative was diluted at a concentration of 1 or 10 µM and added. As the long-acting GIP derivative, the long-acting GIP conjugate (SEQ ID NO: 17) prepared in Example 3 was used.
# RNA was isolated from the THP-1 cell line after the treatment was completed by using the RNeasy Mini Kit (Qiagen, US), and cDNA was synthesized using the iScript™ cDNA Synthesis Kit (Bio-rad, US). […]
# THP-1 cell line [2] = assay: Inflammation-related cytokines in the medium of PMA and LPS-induced THP-1 cells (ELISA); conditions: THP-1, 150 nm PMA and 0.1 µg/mL LPS, native GIP 1 µM, long-acting GIP derivative 0.1 µM or 1 µM, FIG. 2B
# Description: Additionally, in order to measure the concentrations of the inflammation-related cytokines IL-6, IL-12/23 p40, IL-1β, and TNF-α in the medium of the THP-1 cell line, 150 nm of phorbol 12-myristate 13-acetate (PMA) and 0.1 µg/mL of LPS were added thereto to induce an inflammatory reaction, and the cells were treated with the native GIP and the long-acting GIP derivative: the native GIP was used at a concentration of 1 µM and the long-acting GIP derivative was diluted to a concentration of 0.1 µM or 1 µM. As the medium, Human IL-6 ELISA Kit (Abcam, US), Human IL-12/23 p40 ELISA Kit (Abcam, US), Human IL-1beta ELISA Kit (Abcam, US), and Human TNF alpha ELISA Kit (Abcam, US)were used for quantification.
substance,measurement,setting,value
"native GIP: hormone composed of 42 amino acids secreted from the K cells of the small intestine (YAEGTFISDYSIAMDKIHQQDFVNWLLAQKGKKNDWKHNITQ; Gastric inhibitory polypeptide; UniProt P09681 52-93, looked up)","relative expression levels of inflammation-related genes IL-6, IL-12, and TNF-α",A549 cell line; FIG. 3A,significantly decreased
same,"relative expression levels of EMT marker fibronectin, Col1α1, and Col3α1",A549 cell line; FIG. 3B,decreased
same,"relative expression levels of inflammation-related genes IL-6, IL-12, IL-1β, and TNF-α",THP-1 cell line [1],decreased
same,"concentrations of the inflammation-related cytokines IL-6, IL-12/23 p40, IL-1β, and TNF-α in the medium",THP-1 cell line [2],decreased
